Data taken from ChEMBL document CHEMBL1201862, “PubChem BioAssay data set” (2004).
Active and inactive are the calls of the source.

What was measured:
[1] = HEK-293T viability loss after treatment – luminescence, T-cell screen hits, cytotoxicity control for TCR NF-kB inhibitor project, dose response (AID 489026); type: functional, cell-based;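 also: cells exposed to compound about 14 hours before the viability readout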
[2] = loss of viability in HepG2 cells – cell-based, CellTiter-Glo, cherry-picked, cytotoxicity control for Shn3 inhibitor project, dose response (AID 624134); type: functional
cells = type: functional, cell-based; settings: HEK-CNG
[3] = decrease of insulin promoter-GFP reporter – imaging, high-content screening, mouse beta cells (AID 1628); type: functional; settings: MIN6
[4] = non-specific 3'UTR reporter inhibition in Clone20-Shn3RL – cell-based, Renilla luciferase, cherry-picked, counter-screen for Shn3 inhibitor project, dose response (AID 624133); type: functional
INS1 = test: INS-1E survival protection against cytokine death – cell-based, luminescence, retest, dose response (AID 449756); type: functional; settings: Rattus norvegicus;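 also: cell death triggered by IL-1 beta plus TNF-alpha plus IFN-gamma mixture; protective hits raise ATP signal compared with cytokine alone wells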
[5] = MIN6 cell viability loss – mouse insulinoma, cytotoxicity control, dose response (AID 2122); type: functional;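 also: confirmatory high-throughput counterscreen run to flag cytotoxic compounds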
[6] = reduction of Shn3 3'UTR-driven luciferase in osteoblasts – cell-based, Clone20 osteoblasts, firefly luciferase, cherry-picked, dose response (AID 624132); type: functional;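 also: firefly luciferase luminescence from reporter carrying the Shn3 3'UTR in osteoblasts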
Galanin receptor type 3 = Galanin receptor type 3 (Homo sapiens, UniProt O60755); test: Fluorescence-based cell-based primary high throughput dose response assay to identify antagonists of the Galanin Receptor 3 (GalR3).; type: functional
[7] = target: Long-chain-fatty-acid--AMP ligase FadD28 (Mycobacterium tuberculosis, UniProt P9WQ59); test: Fluorescence polarization aasay to screen for inhibitors that compete for the binding of FadD28 to a bisubstrate Measured in Biochemical System Using Plate Reader - 2147-01_Inhibitor_Dose_CherryPick_Activity.; type: functional, Mycobacterium tuberculosis H37Rv
[8] = target: Dual specificity tyrosine-phosphorylation-regulated kinase 1A (Rattus norvegicus, UniProt Q63470); type: biochemical, Homo sapiens
[9] = general mammalian cell viability loss – inhibitor set, cherry-pick, set 2, cytotoxicity control for miR-122 modulator project, dose response (AID 720697); type: functional, cell-based
[10] = target: T1, DNA repair protein RAD52 homolog (Homo sapiens, UniProt P43351); type: functional, biochemical
T1 sequence (P43351 whole entry): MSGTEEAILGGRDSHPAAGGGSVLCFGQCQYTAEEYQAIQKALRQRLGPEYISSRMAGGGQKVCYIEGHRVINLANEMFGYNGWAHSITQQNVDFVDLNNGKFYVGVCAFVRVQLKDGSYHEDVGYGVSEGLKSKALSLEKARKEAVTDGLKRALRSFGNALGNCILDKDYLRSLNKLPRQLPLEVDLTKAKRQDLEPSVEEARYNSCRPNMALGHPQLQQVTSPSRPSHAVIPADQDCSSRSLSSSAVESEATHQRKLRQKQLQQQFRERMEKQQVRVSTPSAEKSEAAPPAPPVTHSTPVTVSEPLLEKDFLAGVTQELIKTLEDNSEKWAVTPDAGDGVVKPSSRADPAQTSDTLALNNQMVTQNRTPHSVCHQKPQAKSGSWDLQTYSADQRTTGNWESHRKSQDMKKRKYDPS

[11] = general mammalian cell viability loss – activator set, cherry-pick, cytotoxicity control for miR-122 modulator project, dose response (AID 720690); type: functional, cell-based;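 also: HEK293T human cells scored for general mammalian cytotoxicity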
[12] = target: Nuclear receptor subfamily 5 group A member 2 (Homo sapiens, UniProt O00482); type: functional, cell-based;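 also: HEK293T cells transfected with LRH-1 and a StAR promoter luciferase reporter; potency for inhibitors that lower LRH-1 driven reporter light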
Steroidogenic factor 1 = Steroidogenic factor 1 (Homo sapiens, UniProt Q13285); test: Counterscreen for inverse agonists of the liver receptor homolog-1 (LRH-1; NR5A2): Luminescence-based cell-based high throughput dose response assay to identify inverse agonists of the Steroidogenic Factor 1 Nuclear Receptor (SF1; NR5A1).; type: functional
[13] = nonselective StAR promoter luciferase inhibitors – cell-based, luminescence, luciferase reporter, counter-screen for LRH-1 inverse agonist project, dose response (AID 651969); type: functional
Protein Wnt-3a = Protein Wnt-3a (Mus musculus, UniProt P27467); test: SAR analysis of small molecule antagonists of Gli-SUFU in a Wnt3a luminescent reporter assay.; type: functional
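For EC50 in this document: target is galanin receptor GalR3 read with a cAMP biosensor in HEK293 cells.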

Chain of Steroidogenic factor 1 (Q13285 whole entry): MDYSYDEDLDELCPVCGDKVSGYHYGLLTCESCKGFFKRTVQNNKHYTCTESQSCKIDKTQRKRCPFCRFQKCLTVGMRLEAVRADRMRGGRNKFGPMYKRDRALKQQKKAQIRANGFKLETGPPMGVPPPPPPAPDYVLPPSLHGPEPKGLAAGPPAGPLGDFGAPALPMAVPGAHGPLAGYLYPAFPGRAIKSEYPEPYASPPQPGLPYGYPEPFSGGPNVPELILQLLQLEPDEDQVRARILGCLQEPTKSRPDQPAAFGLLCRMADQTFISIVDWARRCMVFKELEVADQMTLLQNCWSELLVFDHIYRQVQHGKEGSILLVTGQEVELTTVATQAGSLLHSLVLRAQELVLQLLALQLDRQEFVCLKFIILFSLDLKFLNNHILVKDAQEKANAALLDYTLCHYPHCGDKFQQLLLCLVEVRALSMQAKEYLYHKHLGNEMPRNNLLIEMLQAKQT
Chain of Nuclear receptor subfamily 5 group A member 2 (O00482 whole entry): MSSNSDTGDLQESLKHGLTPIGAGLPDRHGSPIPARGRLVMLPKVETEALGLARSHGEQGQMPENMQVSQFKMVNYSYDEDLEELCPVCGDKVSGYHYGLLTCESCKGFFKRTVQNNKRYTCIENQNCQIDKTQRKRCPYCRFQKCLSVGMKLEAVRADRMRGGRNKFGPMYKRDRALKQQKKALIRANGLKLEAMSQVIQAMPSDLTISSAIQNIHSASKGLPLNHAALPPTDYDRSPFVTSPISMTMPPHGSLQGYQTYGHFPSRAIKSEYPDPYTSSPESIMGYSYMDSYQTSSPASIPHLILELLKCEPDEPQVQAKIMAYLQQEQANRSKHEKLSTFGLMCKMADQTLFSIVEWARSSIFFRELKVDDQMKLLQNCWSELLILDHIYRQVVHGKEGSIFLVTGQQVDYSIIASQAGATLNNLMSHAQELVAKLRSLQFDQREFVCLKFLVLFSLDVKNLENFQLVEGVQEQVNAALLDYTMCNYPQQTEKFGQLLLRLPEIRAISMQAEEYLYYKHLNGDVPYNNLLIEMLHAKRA
Chain of Long-chain-fatty-acid--AMP ligase FadD28 (P9WQ59 whole entry): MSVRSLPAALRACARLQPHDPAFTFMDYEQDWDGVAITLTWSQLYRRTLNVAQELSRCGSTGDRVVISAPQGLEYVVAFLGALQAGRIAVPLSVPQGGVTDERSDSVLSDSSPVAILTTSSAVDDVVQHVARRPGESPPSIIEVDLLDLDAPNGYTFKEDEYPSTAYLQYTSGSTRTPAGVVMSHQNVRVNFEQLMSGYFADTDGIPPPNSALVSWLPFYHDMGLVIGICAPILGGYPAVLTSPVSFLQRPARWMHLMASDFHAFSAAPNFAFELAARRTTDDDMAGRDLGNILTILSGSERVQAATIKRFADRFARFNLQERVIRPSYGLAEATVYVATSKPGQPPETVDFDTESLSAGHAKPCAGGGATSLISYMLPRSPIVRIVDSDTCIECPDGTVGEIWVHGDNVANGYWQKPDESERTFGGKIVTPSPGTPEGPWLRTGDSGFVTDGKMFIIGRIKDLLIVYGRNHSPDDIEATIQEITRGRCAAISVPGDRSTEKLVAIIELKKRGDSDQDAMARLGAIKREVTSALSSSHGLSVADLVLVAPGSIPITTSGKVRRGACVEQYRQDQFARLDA
Chain of Galanin receptor type 3 (O60755 whole entry): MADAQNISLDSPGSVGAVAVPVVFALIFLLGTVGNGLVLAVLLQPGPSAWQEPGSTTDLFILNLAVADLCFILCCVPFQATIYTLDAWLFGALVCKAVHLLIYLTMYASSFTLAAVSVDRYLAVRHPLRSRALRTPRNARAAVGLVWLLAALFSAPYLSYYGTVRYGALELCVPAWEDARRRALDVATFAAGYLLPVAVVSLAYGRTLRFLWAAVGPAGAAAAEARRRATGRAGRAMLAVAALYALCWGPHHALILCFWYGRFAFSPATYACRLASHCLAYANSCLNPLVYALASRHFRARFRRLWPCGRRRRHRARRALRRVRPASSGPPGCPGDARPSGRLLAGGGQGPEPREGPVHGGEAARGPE
Chain of Protein Wnt-3a (P27467 whole entry): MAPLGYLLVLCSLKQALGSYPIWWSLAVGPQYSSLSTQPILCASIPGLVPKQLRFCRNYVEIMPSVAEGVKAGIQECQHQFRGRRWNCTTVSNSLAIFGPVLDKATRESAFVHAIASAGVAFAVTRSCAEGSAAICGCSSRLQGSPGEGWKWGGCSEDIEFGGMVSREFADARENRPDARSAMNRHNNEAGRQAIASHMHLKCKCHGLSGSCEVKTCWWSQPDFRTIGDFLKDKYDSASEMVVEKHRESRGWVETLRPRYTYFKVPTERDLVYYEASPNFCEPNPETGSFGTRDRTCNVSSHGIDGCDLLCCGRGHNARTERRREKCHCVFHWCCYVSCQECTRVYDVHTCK

Cc1cc(C)nc(SCC(=O)Nc2ccnc3ccccc23)n1
IC50 [1]: > 80 µM (inactive)
AC50 [2]: > 70 µM (inactive)
EC50 (cells): > 29.9 µM (inactive)
IC50 [3]: 0.695 µM (active)
AC50 [4]: < 0.26 µM (active)
AC50 (INS1): 4.76 µM (active)
IC50 [5]: 0.398 µM (active)
AC50 [6]: 0.462 µM (active)
IC50 (Galanin receptor type 3): 0.874 µM (active)

COc1cccc(/C=N/n2c(S)nnc2C2CCCCC2)c1O
AC50 [7]: 16.8 µM (active)
AC50 [8]: 6.14 µM (active)

COc1ccc(-c2c(-c3ccccc3)c(C(=O)C(=O)NCCCN(C)C)n3ccc4cc(OC)c(OC)cc4c23)cc1OC
AC50 [9]: 4.39 µM (active)
AC50 [10]: 3.15 µM (active)
AC50 [11]: 17.2 µM (active)

Cc1ccc(NC(=O)CN2C(=O)NC(C)(CC(C)C)C2=O)c(Br)c1 (stereo unspecified)
IC50 [12]: 11.7 µM (inactive)
IC50 (Steroidogenic factor 1): 8.09 µM (active)
IC50 [13]: 35.9 µM (inactive)

COc1cc(OC)cc(C(=O)Nc2cc(N3CCCC3)ncn2)c1
IC50 (Protein Wnt-3a): > 21.8 µM (inactive)

Cc1ccc(-c2nn3c(C)nnc3s2)cc1NC(=O)c1cccs1
IC50 [12]: 1.13 µM (active)
IC50 (Steroidogenic factor 1): 0.684 µM (active)
IC50 [13]: 35.9 µM (inactive)
